Results from doi:10.1101/2025.08.06.668955, “High-Affinity, Structure-Validated and Selective Macrocyclic Peptide Tools for Chemical Biology Studies of Huntingtin” (bioRxiv, 2025).
Where a SMILES comes first, the peptide text is derived from it. Bridges are numbered along the chain shown (N, C = ends). Primed or numbered codes have the meaning given here. Where no end group is shown, it is not given here. [ ]: non-standard residue; d: D form. FITC′ = not defined here

Key:
[1] = target: T1, HTTQ23-HAP40 (Homo sapiens, UniProt P23610+P42858, INS38QQ); assay: Thermal shift assay (DSF), HTTQ23-HAP40; type: binding; conditions: SYPRO Orange, 0.25 mg/mL protein, macrocycle up to 10 μM, 2.5% DMSO, n=3
T1 construct: Full-length wildtype HTT with a polyQ tract of 23 glutamines; FLAG; made in house; host or cells: Sf9 insect cells (baculovirus)
Procedure: In an Axygen® 384-well PCR microplate (REF# PCR-384-LC480-W-NF, Corning), samples were mixed to yield a final concentration of 0.25 mg/mL Q54 or Q23/HAP40, a 5-pt 2-fold serial dilution of each macrocycle (top concentration of 10 μM, 2.5% DMSO), and 5X SYPRO™ Orange (CAT# S6650, Thermo Fisher Scientific) in buffer (20 mM HEPES pH 7.4, 150 mM NaCl, 1 mM TCEP, 0.005% Tween-20). Differential Scanning Fluorimetry (DSF) was performed using a LightCycler® 480 (Roche LifeSciences) set to a 4 °C/min temperature ramp (20–95 °C) and fluorescence detection at 580 nm. Melting temperatures (Tm) were obtained from the minima of the negative derivative of each curve. The propagated error of the thermal shift (ΔTm) was calculated from the standard deviation of each Tm mean (n=3). To ensure a maximally macrocycle-bound fraction (KD ~10 nM; ~100% bound) at 0.25 mg/mL HTT or HTT-HAP40 (~0.7 μM), the upper limit of macrocycle tested was 10 μM.
98 Supplementary Figure. 10. Thermal shift (ΔTm) induced by macrocycle binding. Melting
99 temperature of HTTQ54 (left) with HL5 or HL2 minus HTTQ54 with DMSO (46.5 °C), and (right)
100 HTTQ23-HAP40 with HD4, HL2, HL5, HHD2, HHD3, or HHL1 minus HTTQ23-HAP40 with DMSO
101 (51.0 °C). ΔTm significance was determined using an unpaired t-test with Welch correction,
102 comparing to the mean Tm of Q54 or Q23-HAP40 with DMSO; *P < 0.05, **P < 0.01, ***P <
103 0.001. The summary table reports the ΔTm and exact P value at the highest concentration tested
(1 picture or pasted object on this page, not shown here)

[2] = tested on: HAP40; assay: Macrocycle precipitation (MP), co-purification of HAP40, LC-MS/MS; type: binding, human; conditions: HEK293T lysate versus HTT CRISPR knockout line
From the text: To assess macrocycle selectivity and identify potential HTT interacting proteins, we performed LC-MS/MS analysis of the proteins in the MP eluates. To control for non-specific binding, we performed MPs using lysates from a HTT CRISPR knockout cell line ([Jung et al., 2021]). Across all macrocycles, HTT emerged as the most enriched protein after background subtraction (Figure 5b). Given we performed affinity purification using macrocycles targeting distinct HTT surfaces, we hypothesized that any real HTT protein binder might be co-purified with two or more macrocycles. […] In contrast, HAP40 was not enriched by HL5, consistent with its specificity for apo HTT.
(§1) Macrocycles were pre-conjugated to streptavidin beads (Cytiva, 17-5113-01) by incubating with a 30 μL slurry of beads per macrocycle purification (MP) in Lysis Buffer (10 mM Tris-HCl, pH 7.9, 150 mM NaCl, 0.1% NP-40, 1:500 protease inhibitor cocktail (Sigma-Aldrich), 1:1,000 benzonase nuclease, and 2 mM MgCl2) for 1 hour at 4°C. A concentration of 1.25 μM macrocycle was used for conjugation. After incubation, beads were washed three times with 500 μL Lysis Buffer to remove unbound macrocycles and resuspended in 500 μL of lysate at 4 mg/mL protein concentration.
(§2) Cells were harvested by centrifugation at 1,500 rpm for 5 minutes, washed twice with PBS, and snap-frozen. Cell pellets were then resuspended in 500 μL of Lysis Buffer (as described above) and incubated on an end-over-end rotator at 4°C for 1 hour. Lysates were clarified by centrifugation at 20,000g for 15 minutes at 4°C, and the supernatant was transferred to fresh 1.5 mL Eppendorf tubes. Protein concentration was determined by BCA assay (Thermo Fisher Scientific, 23225), yielding approximately 4 mg of protein on average. Lysates were diluted to a final concentration of 4 mg/mL for use, providing […] of total protein per MP.
(§3) Macrocycle-conjugated beads were incubated with 2 mg of lysate in Lysis Buffer for 1 hour at 4°C with rotation. After incubation, beads were collected by centrifugation at 3,000 rpm, and the flow-through was saved for analysis. Beads were then washed sequentially with 1 mL of Wash Buffer 1 (10 mM Tris-HCl, pH 7.9, 100 mM NaCl, 0.1% NP-40) and twice with Wash Buffer 2 (Wash Buffer 1 without detergent). Lastly, bound proteins were eluted from the beads with 200 μL of 0.5 M NH4OH and flash-frozen in liquid nitrogen.
All sample preparation, LC MS/MS data collection, and MS data searches were carried out at the SPARC BioCentre at The Hospital for Sick Children (Toronto, ON, Canada). […] Samples were analyzed by liquid chromatography tandem mass spectrometry (LC-MS/MS) using an EASY-nanoLC 1200 system with a 1 h analysis and an Orbitrap Fusion™ Lumos™ Tribrid™ Mass Spectrometer (Thermo Fisher Scientific). […]

[3] = tested on: endogenous HTT; assay: Macrocycle precipitation (MP) of endogenous HTT from HEK293T cell extracts; type: binding, human; conditions: HEK293 cell lysate, 2 mg protein, streptavidin beads conjugated at 1.25 μM macrocycle, 1 hour at 4°C
Procedure: To explore binding and selectivity within a more physiological context, we used biotinylated derivatives of macrocycles to affinity purify HTT from cellular extracts, which we term “macrocycle precipitations” (MPs)(Figure 5a). The macrocycles were joined to the biotin using either a 2 amino acid linker (AK-Bio) or a PEG11 spacer (PEG11-Bio) (Supplementary Figure 12a). Extracts were prepared from HEK293T cells, including HTT knock-out lines and streptavidin beads were used to attempt to capture macrocycle–HTT complexes, and potentially associated binding partners.
as §1, §2, §3
All sample preparation, LC MS/MS data collection, and MS data searches were carried out at the SPARC BioCentre at The Hospital for Sick Children (Toronto, ON, Canada). Samples were reduced with DTT (10 mM, 60°C, 1 hour), alkylated with iodoacetamide (20 mM, room temperature, 45 min, dark), and digested overnight at 37°C with trypsin ([…]; Pierce). Peptides were dried by vacuum centrifugation, desalted on C18 ziptips (Millipore) using a DigestPro MSi (Intavis Bioanalytical Instruments), and dried again by vacuum centrifugation before resuspension in Buffer A (0.1% formic acid (v/v) in water). Samples were analyzed by liquid chromatography tandem mass spectrometry (LC-MS/MS) using an EASY-nanoLC 1200 system with a 1 h analysis and an Orbitrap Fusion™ Lumos™ Tribrid™ Mass Spectrometer (Thermo Fisher Scientific). The LC portion of the analysis consisted of a 18 min linear gradient running 3–20% of Buffer A to Buffer B (0.1% formic acid (v/v) in […]), followed by a 31 min linear gradient running 20–35% of Buffer A to Buffer B, a 2 min ramp to 100% Buffer B and 9 min hold at 100% Buffer B, all at a flow rate of 250 nL/min. Samples were loaded into a […] × 2 cm Acclaim PepMap 100 Pre-column followed by a 75 μm × 50 cm PepMax RSLC EASY-Spray analytical column filled with […] C18 beads (Thermo Fisher Scientific). MS1 acquisition resolution was set to 120000 with an automatic gain control (AGC) target value of 4 × 105 and maximum ion injection time (IT) of 50 ms for a scan range of m/z 375–1500, with dynamic exclusion set to 10 s. Isolation for MS2 scans was performed in the quadrupole with an isolation window of m/z 0.7. […]

[4] = target: HTTQ54-HAP40 (UniProt P23610 1-371); assay: FP
[5] = target: C-terminally biotinylated HTTQ23 in complex with HAP40 (UniProt P23610 1-371, biotin on the C-terminal Avi-tag); assay: SPR

Sequence of HTTQ54-HAP40 (P42858 other isoform, or with tags, fused parts or gaps, chain 1 of 2): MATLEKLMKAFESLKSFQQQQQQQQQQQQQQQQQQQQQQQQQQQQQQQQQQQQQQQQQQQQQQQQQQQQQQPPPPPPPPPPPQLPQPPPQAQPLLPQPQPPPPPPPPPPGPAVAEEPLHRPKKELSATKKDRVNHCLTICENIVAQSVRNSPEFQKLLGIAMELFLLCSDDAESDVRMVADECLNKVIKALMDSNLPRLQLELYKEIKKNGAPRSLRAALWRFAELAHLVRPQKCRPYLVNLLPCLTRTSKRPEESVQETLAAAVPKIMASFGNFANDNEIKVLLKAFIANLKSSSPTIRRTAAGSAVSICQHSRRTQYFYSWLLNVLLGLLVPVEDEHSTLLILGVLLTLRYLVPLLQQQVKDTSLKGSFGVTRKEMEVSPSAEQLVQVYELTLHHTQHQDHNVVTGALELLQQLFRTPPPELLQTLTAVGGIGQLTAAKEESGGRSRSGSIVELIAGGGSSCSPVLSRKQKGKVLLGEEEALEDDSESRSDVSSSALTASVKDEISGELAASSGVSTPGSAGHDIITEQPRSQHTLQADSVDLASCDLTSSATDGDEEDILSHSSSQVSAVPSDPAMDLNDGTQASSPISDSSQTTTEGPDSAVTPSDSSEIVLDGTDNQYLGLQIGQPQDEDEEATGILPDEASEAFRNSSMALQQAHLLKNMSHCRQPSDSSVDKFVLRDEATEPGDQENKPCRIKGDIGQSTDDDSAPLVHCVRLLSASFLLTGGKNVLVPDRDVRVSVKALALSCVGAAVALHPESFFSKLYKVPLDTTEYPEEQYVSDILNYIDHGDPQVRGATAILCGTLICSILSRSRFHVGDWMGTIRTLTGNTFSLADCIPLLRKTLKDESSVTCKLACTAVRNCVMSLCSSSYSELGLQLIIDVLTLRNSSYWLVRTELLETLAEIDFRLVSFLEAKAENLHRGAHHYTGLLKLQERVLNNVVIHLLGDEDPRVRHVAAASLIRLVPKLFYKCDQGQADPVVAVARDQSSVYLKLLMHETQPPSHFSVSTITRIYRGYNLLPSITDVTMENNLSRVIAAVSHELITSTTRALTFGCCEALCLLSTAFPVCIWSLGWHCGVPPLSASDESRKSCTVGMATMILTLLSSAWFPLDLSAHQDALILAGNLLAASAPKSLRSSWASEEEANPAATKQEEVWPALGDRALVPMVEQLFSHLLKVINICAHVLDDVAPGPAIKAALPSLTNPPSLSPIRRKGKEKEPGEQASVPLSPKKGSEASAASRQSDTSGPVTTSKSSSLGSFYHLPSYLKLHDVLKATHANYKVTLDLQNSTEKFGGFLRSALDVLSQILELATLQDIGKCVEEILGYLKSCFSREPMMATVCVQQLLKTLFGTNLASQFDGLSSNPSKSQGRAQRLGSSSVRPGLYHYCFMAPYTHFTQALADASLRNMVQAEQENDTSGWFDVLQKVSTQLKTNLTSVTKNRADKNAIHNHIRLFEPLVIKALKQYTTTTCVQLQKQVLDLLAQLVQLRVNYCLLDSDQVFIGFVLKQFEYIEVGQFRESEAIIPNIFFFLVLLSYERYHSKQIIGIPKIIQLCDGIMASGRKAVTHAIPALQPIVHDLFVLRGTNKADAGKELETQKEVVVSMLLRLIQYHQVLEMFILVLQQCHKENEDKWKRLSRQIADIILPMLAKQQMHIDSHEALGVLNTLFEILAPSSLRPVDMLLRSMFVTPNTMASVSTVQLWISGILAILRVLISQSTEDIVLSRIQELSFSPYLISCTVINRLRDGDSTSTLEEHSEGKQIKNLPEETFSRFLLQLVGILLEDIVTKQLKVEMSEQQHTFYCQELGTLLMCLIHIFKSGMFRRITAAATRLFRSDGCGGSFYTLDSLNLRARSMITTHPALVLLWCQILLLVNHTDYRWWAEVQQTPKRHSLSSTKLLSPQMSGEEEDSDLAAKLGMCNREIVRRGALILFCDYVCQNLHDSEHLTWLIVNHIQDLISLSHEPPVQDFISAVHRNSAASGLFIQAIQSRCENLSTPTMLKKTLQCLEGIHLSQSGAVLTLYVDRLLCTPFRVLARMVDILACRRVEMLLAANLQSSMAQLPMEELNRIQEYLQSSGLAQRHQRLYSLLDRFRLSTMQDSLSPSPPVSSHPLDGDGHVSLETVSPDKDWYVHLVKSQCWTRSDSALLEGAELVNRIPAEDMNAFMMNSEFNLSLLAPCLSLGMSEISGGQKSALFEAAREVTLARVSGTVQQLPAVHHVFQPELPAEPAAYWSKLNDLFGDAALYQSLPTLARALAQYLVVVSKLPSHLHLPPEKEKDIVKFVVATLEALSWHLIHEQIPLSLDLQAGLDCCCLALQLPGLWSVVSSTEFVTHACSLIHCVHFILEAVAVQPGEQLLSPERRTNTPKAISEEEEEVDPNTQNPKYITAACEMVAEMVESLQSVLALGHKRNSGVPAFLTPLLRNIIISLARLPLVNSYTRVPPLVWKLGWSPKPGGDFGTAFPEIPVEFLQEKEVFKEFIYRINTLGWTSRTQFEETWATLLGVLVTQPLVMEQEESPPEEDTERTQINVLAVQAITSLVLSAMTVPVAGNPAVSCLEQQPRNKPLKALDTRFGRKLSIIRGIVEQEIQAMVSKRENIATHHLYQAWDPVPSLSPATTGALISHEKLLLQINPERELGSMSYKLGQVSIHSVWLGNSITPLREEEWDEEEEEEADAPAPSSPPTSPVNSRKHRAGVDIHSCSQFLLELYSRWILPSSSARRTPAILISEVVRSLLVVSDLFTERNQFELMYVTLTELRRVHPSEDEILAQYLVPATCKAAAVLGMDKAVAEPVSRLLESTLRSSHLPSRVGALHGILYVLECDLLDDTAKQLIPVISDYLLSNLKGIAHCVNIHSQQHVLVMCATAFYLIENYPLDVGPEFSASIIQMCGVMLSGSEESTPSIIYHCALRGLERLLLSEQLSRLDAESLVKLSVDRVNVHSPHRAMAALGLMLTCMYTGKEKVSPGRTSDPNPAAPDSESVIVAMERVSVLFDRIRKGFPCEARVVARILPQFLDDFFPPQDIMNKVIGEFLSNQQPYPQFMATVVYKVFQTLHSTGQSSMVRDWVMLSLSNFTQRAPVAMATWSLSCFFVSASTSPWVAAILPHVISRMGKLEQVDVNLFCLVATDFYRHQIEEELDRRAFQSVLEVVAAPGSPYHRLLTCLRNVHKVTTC
Sequence of HTTQ54-HAP40 (P23610 whole entry, chain 2 of 2): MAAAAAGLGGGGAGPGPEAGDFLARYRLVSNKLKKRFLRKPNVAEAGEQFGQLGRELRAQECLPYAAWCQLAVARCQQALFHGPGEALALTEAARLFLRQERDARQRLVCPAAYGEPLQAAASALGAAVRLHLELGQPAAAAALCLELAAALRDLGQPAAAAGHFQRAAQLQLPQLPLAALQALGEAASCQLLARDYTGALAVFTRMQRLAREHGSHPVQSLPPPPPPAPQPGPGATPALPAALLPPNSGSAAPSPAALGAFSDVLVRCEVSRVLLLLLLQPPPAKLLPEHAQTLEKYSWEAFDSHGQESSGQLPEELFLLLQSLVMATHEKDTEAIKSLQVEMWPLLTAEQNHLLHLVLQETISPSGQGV

| Molecule | Capture of endogenous HTT by immobilized biotinylated macrocycle [3] | also measured |
| --- | --- | --- |
| CC[C@H](C)[C@H](NC(=O)CNC(=O)[C@@H](NC(=O)[C@H](CCC(N)=O)NC(=O)[C@H](CCCCN)NC(=O)[C@H](CC(N)=O)NC(=O)[C@@H](NC(=O)[C@H](CCC(=O)O)NC(=O)[C@@H]1CSCC(=O)N[C@H](Cc2ccc(O)cc2)C(=O)N[C@@H](CC(=O)O)C(=O)N[C@@H]([C@@H](C)CC)C(=O)N[C@@H](Cc2c[nH]c3ccccc23)C(=O)N1)[C@@H](C)O)[C@@H](C)O)C(=O)N[C@@H](CC(C)C)C(=O)N[C@H](C(=O)N[C@@H](CC(C)C)C(=O)N[C@@H](CS)C(N)=O)C(C)C [HD4] ({CH2CO}-[dY]DIWCETNKQTGILVLC-NH2; thioether N-5) |  | Thermal shift (ΔTm) of HTTQ23-HAP40 induced by macrocycle [1]: No significant thermal effects; Enrichment of HAP40 in macrocycle pulldowns [2]: consistently enriched |
| HD4-AK-Bio: biotinylated derivative of HD4 with a 2 amino acid linker (AK-Bio) (Ac-[dY]DIWCETNKQTGILVLCAK; thioether (positions not given here); also: thioether to downstream Cys, which of Cys5/Cys17 not given here, biotin joined via AK linker, site not given here) | captured |  |
| HHD3-AK-Bio: biotinylated derivative of HHD3 with a 2 amino acid linker (AK-Bio) ({CH2CO}-[dY]TRHWQNNWWILYHEFCAK; thioether N-17 (inferred); also: biotin joined via AK linker, site not given here) | captured |  |
| HHL1-AK-Bio: biotinylated derivative of HHL1 with a 2 amino acid linker (AK-Bio) ({CH2CO}-YLIRSSFNWFVFVEVPCAK; thioether N-17 (inferred); also: biotin joined via 2 amino acid linker AK) | no detectable binding |  |
| HHL1-PEG11-Bio: biotinylated derivative of HHL1 with a PEG11 spacer ({CH2CO}-YLIRSSFNWFVFVEVPC; thioether N-17 (inferred); also: biotin joined via PEG11 spacer) | no detectable binding |  |
| HL2-PEG11-Bio: biotinylated derivative of HL2 with a PEG11 spacer ({CH2CO}-YTARYLTLGTLHYKC; thioether N-15 (inferred); also: biotin joined via PEG11 spacer) | captured |  |
| HL5-PEG11-Bio: biotinylated derivative of HL5 with a PEG11 spacer ({CH2CO}-YTHFQVAPWIQSLC; thioether N-14 (inferred); also: biotin joined via PEG11 spacer) | captured |  |
| {CH2CO}-YTARYLTLGTLHYKC-{FITC′} (thioether N-15 (inferred); not fully specified) [FITC-labeled HL2] |  | Kd [4]: 4 nM |
| {CH2CO}-[dY]TRHWQNNWWILYHEFC-{FITC′} (thioether N-17 (inferred); not fully specified) [FITC-labeled HHD3] |  | Kd [4]: 2.6 nM |
| {CH2CO}-YTARYLTLGTLHYKC (thioether N-15 (inferred)) [HL2] |  | Kd [5]: 2 nM |
| {CH2CO}-YLIRSSFNWFVFVEVPC-{FITC′} (thioether N-17 (inferred); not fully specified) [FITC-labeled HHL1] |  | Kd [4]: 2.6 nM |
